Source: paper PMC5523311, “Synergistic Uric Acid-Lowering Effects of the Combination of Chrysanthemum indicum Linne Flower and Cinnamomum cassia (L.) J. Persl Bark Extracts” (Evidence-based Complementary and Alternative Medicine : eCAM, 2017)
Values after ≈ are worked out from the molar mass of the structure shown.

Experiments:
[1] = tested on: PO-induced hyperuricemic mice; set-up: method as in Wang et al. [23] and Meng et al. [32]; conditions: ref Wang et al. [23] and Meng et al. [32]; cited from earlier work
[2] = target: T1, xanthine oxidase from bovine milk (Bos taurus, UniProt P80457); assay: In vitro XOD inhibition assay (uric acid formation at 295 nm); assay type: biochemical; conditions: for IC50 / IC50 XOD activity: mean of three experiments
T1 construct: xanthine oxidase from bovine milk (0.09 units/mg solid); purchased Sigma-Aldrich (St. Louis, MO, USA); host or cells: bovine milk
T1 sequence (P80457 whole entry): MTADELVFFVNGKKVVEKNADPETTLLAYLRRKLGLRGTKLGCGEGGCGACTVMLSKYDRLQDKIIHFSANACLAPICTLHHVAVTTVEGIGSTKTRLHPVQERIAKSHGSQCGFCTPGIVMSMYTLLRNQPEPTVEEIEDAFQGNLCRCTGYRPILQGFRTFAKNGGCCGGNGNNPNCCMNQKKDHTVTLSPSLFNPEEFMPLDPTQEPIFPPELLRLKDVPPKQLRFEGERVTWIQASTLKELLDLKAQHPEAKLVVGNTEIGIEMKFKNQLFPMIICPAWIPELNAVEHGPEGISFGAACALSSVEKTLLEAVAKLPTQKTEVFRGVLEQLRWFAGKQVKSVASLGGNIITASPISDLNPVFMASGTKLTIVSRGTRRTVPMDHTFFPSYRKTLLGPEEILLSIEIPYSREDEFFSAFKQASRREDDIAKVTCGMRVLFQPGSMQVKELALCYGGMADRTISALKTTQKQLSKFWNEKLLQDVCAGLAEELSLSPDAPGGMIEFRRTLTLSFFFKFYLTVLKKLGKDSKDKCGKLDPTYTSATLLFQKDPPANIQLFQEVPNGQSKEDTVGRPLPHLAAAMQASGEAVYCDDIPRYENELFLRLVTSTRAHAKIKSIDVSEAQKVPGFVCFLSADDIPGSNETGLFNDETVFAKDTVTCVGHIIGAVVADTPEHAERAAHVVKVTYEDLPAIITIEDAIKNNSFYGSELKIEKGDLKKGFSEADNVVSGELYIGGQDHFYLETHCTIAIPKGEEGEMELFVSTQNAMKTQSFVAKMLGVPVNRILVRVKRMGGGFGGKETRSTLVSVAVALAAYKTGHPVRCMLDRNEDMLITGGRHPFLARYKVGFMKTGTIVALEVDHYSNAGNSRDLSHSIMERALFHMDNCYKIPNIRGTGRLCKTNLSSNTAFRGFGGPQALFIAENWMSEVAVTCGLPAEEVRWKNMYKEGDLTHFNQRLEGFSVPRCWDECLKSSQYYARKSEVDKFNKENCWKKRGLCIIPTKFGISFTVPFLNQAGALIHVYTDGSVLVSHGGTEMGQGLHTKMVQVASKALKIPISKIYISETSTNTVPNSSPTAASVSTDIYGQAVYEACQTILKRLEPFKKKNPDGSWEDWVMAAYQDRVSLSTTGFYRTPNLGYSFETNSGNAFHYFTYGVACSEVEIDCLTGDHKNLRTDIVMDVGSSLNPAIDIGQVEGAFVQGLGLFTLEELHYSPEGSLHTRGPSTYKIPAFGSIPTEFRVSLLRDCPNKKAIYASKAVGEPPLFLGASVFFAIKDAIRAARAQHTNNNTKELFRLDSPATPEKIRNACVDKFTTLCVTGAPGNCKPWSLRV
Method: Inhibition of XOD activity was analyzed based on decreases in uric acid formation at 295 nm at 37°C using a spectrophotometer. […] Test samples were dissolved in DMSO (final concentration 0.1%, v/v) to final concentrations appropriate for the tested dose. […] All the experiments were performed in triplicate, and IC50 values are expressed as the means of three experiments [26].

[3] = tested on: normal rats; assay: Serum uric acid levels in normal rats; assay type: in vivo, rat; conditions: 10 mg/kg oral, Figure 1(b)
Method: The rats were randomized into the following 9 groups (n = 8/group) based on body weight: (1) a normal control group (NC), (2) a CF group, (3) a CB group, (4) a CC11 group, (5) a CC12 group, (6) a CC14 group, (7) a CC21 group, (8) a CC41 group, and (9) an AP group. The rats of NC group were treated with vehicle (0.5% CMC solution). CF, CB, and various CC mixtures in 0.5% CMC solution were given to the rats via oral gavage at a dose of 200 mg/kg. Allopurinol in 0.5% CMC solution was administered at a dose of 10 mg/kg.
(§1) Urine samples were collected during 2 h after the final administration experiment and centrifuged (3000g, 10 min, 4°C) to remove particulate contaminants, and the supernatants were stored at −80°C until analysis. Blood samples were collected via cardiac puncture under anesthesia 2 h after urine collection following PO injection. […] Serum and urine uric acid (SUA and UUA, resp.) levels were determined by an enzymatic-colorimetric method using commercial assay kits (Biovision, USA) according to manufacturer's protocols. Serum and urine creatinine levels were analyzed by an autoanalyzer (Hitachi-7020, Hitachi Medical, Japan). Fractional excretion of uric acid (FEUA) was calculated by the formula FEUA (%) = (urine uric acid levels [mg/dl] × Serum Creatinine levels [mg/dl])/(serum uric acid levels [mg/dl] × urine creatinine levels [mg/dl]) × 100.

[4] = tested on: PO-induced hyperuricemic rats; assay: Serum uric acid levels in PO-induced hyperuricemic rats; assay type: in vivo, rat; conditions: 10 mg/kg oral
Method: (§2) For hyperuricemia induction, the uricase inhibitor potassium oxonate (PO) was administered as previously described, with slight modifications. For the experiment regarding the effects of CF, CB, and various CC mixtures, the rats were divided into the following 10 groups (n = 8/group) based on body weight: (1) a normal control group (NC), (2) a hyperuricemia control group (PO), (3) a PO + CF group, (4) a PO + CB group, (5) a PO + CC11 group, (6) a PO + CC12 group, (7) a PO + CC14 group, (8) a PO + CC21 group, (9) a PO + CC41 group, and (10) a PO + AP group. […]
as §1, with “analysis.” for “analysis. Blood samples were collected via cardiac puncture under anesthesia 2 h after urine collection following PO injection.”

[5] = tested on: PO-induced hyperuricemic rats; assay: Urine uric acid, FEUA and creatinine in PO-induced hyperuricemic rats; assay type: in vivo, rat; conditions: 10 mg/kg oral
Method: as §2
as §1, with “analysis.” for “analysis. Blood samples were collected via cardiac puncture under anesthesia 2 h after urine collection following PO injection.”

[6] = read-out: % inhibition of XOD activity

For O=C(/C=C/c1ccc(O)c(O)c1)O[C@@H]1C[C@](O)(C(=O)O)C[C@@H](O)[C@H]1O [Chlorogenic acid], which “Effect on serum uric acid levels by inhibiting XOD activity” value [1] is on record?
Its value is “significantly decreased”.

What about the inhibition at 62.5 µg/mL ([2]; 62.5 μg/ml) of the same compound?
Its inhibition at 62.5 µg/mL is 24 ± 1.7%.

What about the inhibition at 125 µg/mL ([2]; 125 μg/ml) of the same compound?
Its inhibition at 125 µg/mL is 63.6 ± 1.5%.

And the inhibition at 250 µg/mL ([2]; 250 μg/ml)?
Its inhibition at 250 µg/mL is 107.3 ± 0.6%.

And the IC50 [2]?
The IC50 was 293 µM.

With Oc1ncnc2[nH]ncc12 [Allopurinol, allopurinol] as the compound, how does the inhibition at 6.25 µg/mL [2, 6] read?
The inhibition at 6.25 µg/mL was 51.7 ± 0.7%.

And the inhibition at 12.5 µg/mL [2, 6]?
The inhibition at 12.5 µg/mL was 71.7 ± 0.1%.

And the inhibition at 25 µg/mL [2, 6]?
The inhibition at 25 µg/mL was 80.3 ± 0.3%.

And the “Decrease of serum uric acid levels compared with the NC group” value [3]?
Its value is 70%.

And the “Reduction of serum uric acid levels compared with the PO group” value ([4]; PO-induced hyperuricemic rats, Figure 1(a))?
The value was 75%.

And the “Reduction of serum uric acid levels” value ([4]; dose-dependence experiment, Figure 2(a))?
The value was 66%.

And the “Effect on urine uric acid levels” value ([5]; Figure 2(b))?
Its value is “did not affect”.

What about the “Effect on FEUA” value ([5]; Figure 2(c), p < 0.05) of the same compound?
Its value is “increased the FEUA”.

For O=C/C=C/c1ccccc1 [Cinnamaldehyde, cinnamaldehyde], which “Effect on serum uric acid levels by inhibiting XOD activity” value [1] is on record?
The value was “significantly decreased”.

And the inhibition at 62.5 µg/mL ([2]; 62.5 μg/ml)?
Its inhibition at 62.5 µg/mL is 101 ± 3.2%.

And the inhibition at 125 µg/mL ([2]; 125 μg/ml)?
The inhibition at 125 µg/mL was 126 ± 5.6%.

And the inhibition at 250 µg/mL ([2]; 250 μg/ml)?
Its inhibition at 250 µg/mL is 119 ± 35.1%.

What about the IC50 [2] of the same compound?
Its IC50 is 331 µM.

What does the source list for O=C(/C=C/c1ccc(O)c(O)c1)O[C@@H]1[C@H](O)C[C@@](O)(C(=O)O)C[C@H]1OC(=O)/C=C/c1ccc(O)c(O)c1 (stereo in doubt) [3,4-Dicaffeoylquinic acid, 3,4-dicaffeoylquinic acid]?
% inhibition of XOD activity ([2]; 62.5 μg/ml): 21.0 ± 1.5%; % inhibition of XOD activity ([2]; 125 μg/ml): 104.6 ± 2.6%; % inhibition of XOD activity ([2]; 250 μg/ml): 85.0 ± 1.2%; IC50 XOD activity [2]: 79.7 µg/mL (≈ 154 µM)

With O=c1ccc2ccccc2o1 [Coumarin, coumarin] as the compound, how does the inhibition at 62.5 µg/mL ([2]; 62.5 μg/ml) read?
Its inhibition at 62.5 µg/mL is 22.8 ± 0.1%.

What about the inhibition at 125 µg/mL ([2]; 125 μg/ml) of the same compound?
Its inhibition at 125 µg/mL is 75.1 ± 1%.

And the inhibition at 250 µg/mL ([2]; 250 μg/ml)?
Its inhibition at 250 µg/mL is 103.9 ± 0.7%.

And the IC50 [2]?
Its IC50 is 651 µM.

What does the source list for O=C(O)/C=C/c1ccccc1 [trans-Cinnamic acid, trans-cinnamic acid]?
% inhibition of XOD activity ([2]; 62.5 μg/ml): 54.3 ± 0.7%; % inhibition of XOD activity ([2]; 125 μg/ml): 96.7 ± 1.9%; % inhibition of XOD activity ([2]; 250 μg/ml): 114.9 ± 0.4%; IC50 XOD activity [2]: 58.8 µg/mL (≈ 397 µM)

Which “% inhibition of XOD activity” value ([2]; 62.5 μg/ml) does the source give for COc1ccccc1C=CC=O [o-Methoxycinnamaldehyde, o-methoxycinnamaldehyde] here?
Its value is 104.7 ± 0.2%.

And the “% inhibition of XOD activity” value ([2]; 125 μg/ml)?
Its value is 101.2 ± 0.2%.

What about the “% inhibition of XOD activity” value ([2]; 250 μg/ml) of the same compound?
Its value is 100.0 ± 0.4%.

What about the “IC50 XOD activity” value [2] of the same compound?
Its value is 25.7 µg/mL (≈ 158 µM).
